Measured values: patent publication US12435380B2, “Compositions and methods for the diagnosis and treatment of ALT cancer” (Texas Tech University System, priority 2018, dated 2025)
“Also recorded” adds a separate entry of the source.

Experiments:
[1] = tested on: ALT neuroblastoma cell lines; experiment: PRIMA-1 activity in neuroblastoma cell lines, ALT vs non-ALT; assay type: cell-based, human; conditions: ALT vs TP53-mutated non-ALT neuroblastoma cell lines
Excerpt: Neuroblastoma provides a unique cancer for studying the role of changes that lead to inactivation of p53, such as TP53 inactivating mutations. This is because, unlike many other cancers, neuroblastomas at diagnosis and before therapy most frequently are p53 functional and there is a very low incidence of TP53 mutations. However, the incidence of p53 loss-of-function (often by TP53 mutation) increases in progressive disease after therapy. Because PRIMA-1 was developed as a drug that could restore p53 function to tumors with TP53 mutations, we assessed the activity of PRIMA-1 in neuroblastoma cell lines. Our panel of neuroblastoma cell lines includes p53-functional cell lines and those that have p53 loss-of-function and lines with TP53 mutations. The panel includes cell lines with TP53 mutations that are telomerase-positive (high TERT expression) and also TERT-low ALT (C-circle-positive) cell lines.
We have determined that the C-circle assay (specific for ALT cancers) identifies cancers that are especially responsive to PRIMA-1. While PRIMA-1 and APR-246 are being developed to treat TP53-mutated caners, only a subset of the latter respond to the drug as shown in preclinical studies and in the early phase I clinical trials. […]

[2] = tested on: ALT cell lines; experiment: PRIMA-1 activity in ALT cell lines from cancers other than neuroblastoma; assay type: cell-based, human; conditions: all ALT cell lines examined to date
[3] = tested on: p21 and NOXA; experiment: Immunoblots of apoptotic proteins after PRIMA-1MET; assay type: cell-based, human; conditions: TP53-mutated, 20 uM, 6, 12 and 24 hours
Experimental: FIGS. 5A and 5B are quantitative representations of immunoblots of apoptotic proteins with three ALT+ cell lines and two TERT+ lines. All cell lines were treated with 20 uM of PRIMA-1MET for 6, 12 and 24 hours. All cell lines were known to have TP53-inactivating mutations. […] We hypothesize this is due to the constitutive activation of ATM in ALT positive cell lines, which will trigger senescence and apoptosis once PRIMA-1MET refolds mutant TP53.

[4] = tested on: ALT+ neuroblastoma cell lines; experiment: DIMSCAN cytotoxicity, neuroblastoma cell lines; assay type: cell-based, human
Experimental: FIG. 6 is a graph of survival fraction versus PRIMA-1MET concentration and illustrates high cytotoxicity of PRIMA-1MET in ALT+ versus TERT+(ALT negative) NB cell lines. FIG. 6 illustrates NB 5% O2. PRIMA-1MET dose response curves were analyzed using the DIMSCAN cytotoxicity assay system in 4 ALT+ neuroblastoma cell lines compared to 3 non-ALT, but TP53-mut cell lines.
FIGS. 7A and 7B are graphs of survival fraction versus PRIMA-1MET concentration and illustrate cytotoxicity of PRIMA-1MET in ALT+NB cell lines as enhanced by hypoxia. PRIMA-1MET cytotoxicity was assessed for 3 ALT neuroblastoma cell lines in ambient air culture conditions (20% O2) compared with bone marrow level hypoxia (5% O2).

[5] = tested on: ALT rhabdomyosarcoma cell lines; experiment: DIMSCAN cytotoxicity, rhabdomyosarcoma cell lines; assay type: cell-based, human; conditions: 5% O2
Experimental: FIGS. 8A and 8B are graphs of survival fraction versus PRIMA-1MET concentration and illustrate Cytotoxicity of PRIMA-1MET in ALT vs TERT+ Rhabdomyosarcoma. FIG. 8A illustrates ALT+ rhabdomyosarcoma grown in 5% O2 and FIG. 8B illustrates TERT+ rhabdomyosarcoma grown in 5% O2. Cytotoxicity of PRIMA-1MET was assessed for ALT and non-ALT (TERT+) rhabdomyosarcoma cell lines using DIMSCAN.

[6] = tested on: ALT lymphoma cell lines TX-LY-064hnb, TX-LY-245h, COG-LY-357h; experiment: DIMSCAN cytotoxicity, lymphoma cell lines; assay type: cell-based, human; conditions: vs TERT+ lines SUP-TI and COG-LY-459, 5% O2, p53 dysfunction
Excerpt: FIGS. 9A and 9B are graphs of survival fraction versus PRIMA-1MET concentration for ALT+p53 non-functional lymphoma 5% O2 and TERT+p53 non-functional lymphoma 5% O2, respectively. […] All lines had some form of p53 dysfunction.

[7] = tested on: ALT+ p53 non-functional adult cell lines; experiment: Cytotoxicity, ALT+ adult cell lines; assay type: cell-based, human; conditions: 5% O2
Excerpt: FIG. 10 is a graph of survival fraction versus PRIMA-1MET concentration for ALT+ adult cell lines showing the high activity of PRIMA1MET against ALT breast cancer, colorectal cancer, ovarian cancer, lung cancer, and leiomyosarcoma cell lines;
FIG. 10 is a graph of survival fraction versus PRIMA-1MET concentration for ALT+p53 non-functional adult cell lines 5% O2. All lines had some form of p53 dysfunction.

[8] = tested on: ALT cell lines from various histologies; experiment: Summary of cytotoxicity (IC50/IC90), ALT vs non-ALT cell lines of all histologies; assay type: cell-based, human
Excerpt: […] are graphs of PRIMA-1MET cytotoxicity of ALT vs non-ALT cell lines and illustrate PRIMA-1MET IC50/IC90 for all tested cancers. FIG. 8A illustrates IC50 20% O2, and FIG. 8B illustrates IC90 20% O2. IC50 5% O2, and IC90 5% O2 were also observed. Cytotoxicity data on all ALT cell lines from various histologies were compared with non-ALT cell lines of the same histologies, presented as inhibitory+cytotoxic concentrations for 50% (IC50) and 90% (IC90) of the cells.
FIGS. 11A and 11B are graphs showing cytotoxicity of ALT and non-ALT cell lines for IC50 and IC90. Cytotoxicity data on all ALT cell lines from various histologies compared with non-ALT cell lines of the same histologies. The data is presented as inhibitory+cytotoxic concentrations for 50% (IC50) and 90% (IC90) of the cells.

[9] = tested on: ALT neuroblastoma cell line CHLA-90; experiment: PRIMA-1MET sensitivity after shRNA knockdown of ATM; assay type: cell-based, human
Excerpt: FIGS. 20A and 20B illustrate data for cell line CHLA-90. shRNA knockdown of ATM in the ALT neuroblastoma cell line CHLA-90 led to hyper-resistance to PRIMA-1MET. We hypothesize this is due to the loss of constitutive activation of ATM in ALT positive cell lines which would trigger senescence and apoptosis once PRIMA-1MET refolds mutant p53 in the presence of ATM.

[10] = tested on: ALT+ cell lines; experiment: PRIMA-1MET IC50 with ATM or ATR kinase inhibitor, ALT+ lines; assay type: cell-based, human; conditions: with ATM kinase inhibitor (ATMi) or ATR kinase inhibitor (ATRi)
Excerpt: (§1) FIGS. 21A and 21B illustrate effect of inhibition of ATM or ATR kinase on sensitivity of ALT+vs TERT+(ALT-negative) using ATM kinase inhibitor (ATMi) or ATR kinase inhibitor (ATRi) ir ALT+ and TERT+ cell lines;
(§2) FIGS. 21A and 21B illustrate inhibition of kinase inhibitors for ALT+ and TERT+ cell lines Kinase Inhibitors antagonize PRIMA-1MET in ALT+ cell lines.

[11] = tested on: TERT+ cell lines; experiment: PRIMA-1MET IC50 with ATM or ATR kinase inhibitor, TERT+ lines; assay type: cell-based, human; conditions: with ATM kinase inhibitor (ATMi) or ATR kinase inhibitor (ATRi)
Excerpt: as §1, §2

[12] = tested on: ALT+ neuroblastoma xenografts CHLA-90m and COG-N-669x; experiment: ALT neuroblastoma xenografts, tumor volume; parameters: species or system athymic nude mice; conditions: mouse, in vivo
Experimental: FIGS. 22A and 22B are graphs tumor volume versus time for CHLA-90m and COG-N-669x. The neuroblastoma cell lines CHLA-90m and COG-N-669x were injected into athymic nude mice and drugged with PRIMA-1Met and BSO.

[13] = cited from earlier work

O=C1C2CCN(CC2)C1(CO)CO [PRIMA-1]
activity of PRIMA-1 in ALT vs non-ALT neuroblastoma [1]: significantly greater in ALT neuroblastoma cell lines; also recorded: significantly higher in ALT neuroblastoma | sensitivity of ALT cell lines to PRIMA-1 [2]: highly sensitive

COCC1(CO)C(=O)C2CCN1CC2 (stereo not drawn) [PRIMA-1MET]
NOXA expression ([3]; three ALT+ cell lines): NOXA expression during longer treatment | p21 expression ([3]; three ALT+ cell lines): substantial increase | NOXA expression ([3]; two non-ALT (TERT+) cell lines): very little increase | p21 expression ([3]; two non-ALT (TERT+) cell lines): very little increase | cytotoxicity in hypoxia vs ambient air ([4]; 3 ALT neuroblastoma cell lines, 5% O2 compared with 20% O2): even great cytotoxicity | sensitivity (survival fraction), ALT vs non-ALT neuroblastoma ([4]; 4 ALT+ vs 3 non-ALT TP53-mut cell lines, 5% O2): significantly more sensitive | sensitivity (survival fraction), ALT vs non-ALT rhabdomyosarcoma [5]: more sensitive | sensitivity (survival fraction), ALT vs TERT+ lymphoma [6]: more sensitive | activity against ALT breast, colorectal, ovarian, lung cancer and leiomyosarcoma cell lines [7]: high activity | sensitivity by IC50 and IC90, ALT vs non-ALT cell lines ([8]; all tested histologies): significantly more sensitive | ALT vs non-ALT difference in IC50/IC90 in hypoxia ([8]; bone marrow level hypoxia (5% O2) vs 20% O2): differences were greater | response to PRIMA-1MET after ATM knockdown [9]: hyper-resistance | change of IC50 with kinase inhibitors [10]: greatly increases | change of IC50 with kinase inhibitors [11]: little effect | tumor volume, single agent relative to control [12]: greater amount of activity | plasma levels ([13]; at the maximally tolerated dose, out to ~12 hours): > 10000 ng/mL | maximally tolerated dose ([13]; phase I, hematological malignancies and hormone-refractory prostate cancer): 60 μg/m^2 | bone marrow toxicity ([13]; phase I): not observed | most common adverse events ([13]; phase I): dizziness, headache, confusion, and other neurological complications
